Measurements: patent US20240317722A1, “HETEROARYL-3-PIPERIDINEDIONE COMPOUND AND USE THEREOF” (Medshine Discovery Inc., priority 2021, published 2024)

Legend:
[1] = Pharmacokinetics of the compound in rats; format: in vivo, SD rats
Source text: In this study, SD male rats were selected as the test animals, and the LC/MS/MS method was used to quantitatively determine the drug concentration at different time points in the plasma of rats intravenously or orally administered the test compound, so as to evaluate the pharmacokinetic profile of the test compound in rats.
Sprague Dawley (SD) rats (male, 200-300 g, 7-10 weeks old, Beijing Vital River).
A clear solution or suspension of the test compound was intravenously injected into SD rats (fasted overnight) via tail or given to SD rats (fasted overnight) by gavage. For intravenous injection administration, blood was collected from the jugular vein at 0 h (before administration) and 0.083, 0.25, 0.5, 1, 2, 4, 6, 8, and 24 h after administration. Each sample was collected about 0.25 mL. Heparin sodium was added to anti-coagulate. Blood samples were collected and placed on wet ice, and centrifuged within 1 hour to separate the plasma (centrifugation conditions: 6000 g, 3 minutes, 2-8° C.). Plasma samples were stored in a −80° C. refrigerator before analysis; For oral gavage administration, blood was collected from the jugular vein at 0 h (before administration) and 0.083, 0.25, 0.5, 1, 2, 4, 6, 8, and 24 h after administration. Each sample was collected about 0.25 mL. Heparin sodium was added to anti-coagulate. Blood samples were collected and placed on wet ice, and centrifuged within 1 hour to separate the plasma (centrifugation conditions: 6000 g, 3 minutes, 2-8° C.). Plasma samples were stored in an −80° C. refrigerator before analysis. Through blood drug concentration data at different time points, Phoenix WinNonlin8.2.0 was used to calculate pharmacokinetic parameters, providing parameters such as AUC0-t, AUC0-∞, MRT0-∞, Cmax, Tmax, and T1/2, etc. and their mean and standard deviation.

[2] = system: MDA-MB-231; assay: Anti-proliferative effect in MDA-MB-231 (CellTiter-Glo); format: cell-based, human; settings: MDA-MB-231, 3 days
Experimental: This assay studied the inhibitory effect of the compounds on cell proliferation by detecting the effect of the test compounds on the in vitro activity of tumor cells MV4-11 and MDA-MB-231.
The tumor cell lines were cultured in an incubator at 37° C., 5% CO2 or 0% CO2according to the above culture conditions. The cells were periodically passaged, and cells in logarithmic growth phase were taken for plating. • 2. Cell plating • (1). Cells were stained with trypan blue and viable cells were counted. • (2).
• (3). 90 μL of cell suspension was added to each well of the culture plate, and culture medium without cells was added to the blank control well. • (4). The plate was incubated overnight in an incubator at 37° C., 5% CO2 or 0% CO2, and 100% relative humidity. • 3. Preparation of a compound storage plate
Preparation of a 400× compound storage plate: The compounds were diluted with DMSO in a gradient from the highest concentration to the lowest concentration. The plates were prepared freshly at each time for use. • 4. Preparation of 10× compound working solution and treatment of cells with compounds • (1). Preparation of 10× compound working solution: compound or DMSO was added, and the well content was mixed to uniform by aspiration and expelling with pipette. 78 μL of cell culture medium was added to a 96-well plate with a V-shaped bottom. 2 μL of the compound from the 400× compound storage plate was added to the cell culture medium in the 96-well plate. 2 μL of DMSO was added to the vehicle control and the blank control. After adding compound or DMSO, the well content was mixed to uniform by aspiration and expelling with pipette. • (2). Dosing: 10 μL of 10× compound working solution was added to the cell culture plate. 10 μL of DMSO-cell culture mix solution was added to the vehicle control and blank control. • (3). The 96-well cell plate was placed back into the incubator and cultured for 3 days. • 5. CellTiter-Glo luminescence cell viability detection
The following steps were performed according to the instruction of Promega CellTiter-Glo luminescence cell viability detection kit (Promega-G7573). • (1). The CellTiter-Glo buffer was thawed and allowed to stand to reach room temperature; • (2). CellTiter-Glo substrate was allowed to stand to reach room temperature; • (3). 10 mL of CellTiter-Glo buffer was added to CellTiter-Glo substrate in a bottle to dissolve the substrate to formulate CellTiter-Glo working solution; • (4). The working solution was vortexed slowly for fully dissolution; • (5). The cell culture plates were taken out and allowed to stand for 30 minutes to equilibrate to room temperature; • (6). 50 μL (equal to half the volume of cell culture solution in each well) of Cell Titer-Glo working solution was added into each well. The cell plate was wrapped with aluminum foil to protect the cell plate from light; • (7). The culture plates were shaken on an orbital shaker for 2 minutes to induce cell lysis; • (8). The culture plates were left at room temperature for 10 minutes to stabilize the luminescence signal; • (9). The luminous signal was detected on the 2104 En Vision plate reader. • 6. Data analysis
The following formula was used to calculate the inhibition rate (IR) of the test compounds: IR (%)=(RLU of the vehicle control−RLU of the compound)/(RLU of the vehicle control−RLU of the blank control)*100%. The inhibition rates of the compounds at different concentrations were calculated in Excel, and then GraphPad Prism software was used to graph the inhibition curves and calculate the relevant parameters, including the minimum inhibition rate, maximum inhibition rate and IC50.

[3] = administration by gavage (10 mg/kg)

- Area under the plasma concentration-time curve (0-inf) [1, 3]: 264.34 µM·h
- Peak concentration [1, 3]: 14.4 µM
- Time to peak [1, 3]: 5.33 h
- Area under the plasma concentration-time curve (0-inf) ([1]; intravenous injection (2 mg/kg)): 464.10 µM·h
- bioavailability ([1]; male, Sprague-Dawley, rat, plasma, PO 10 mg/kg vs IV 2 mg/kg, read-out: Bioavailability F): 11.4%
- clearance ([1]; male, Sprague-Dawley, rat, plasma, intravenous injection (2 mg/kg)): 0.145 mL/min/kg
- Vd ([1]; male, Sprague-Dawley, rat, plasma, intravenous injection (2 mg/kg), read-out: Apparent volume of distribution): 0.121 L/kg
- half-life ([1]; male, Sprague-Dawley, rat, plasma, intravenous injection (2 mg/kg), read-out: Elimination half-life (converted)): 11.1 h
- IC50 ([2]; Homo sapiens, 72 h): 4.7 nM
SMILES: COCCOc1cc(NC(=O)NCc2ccc3c(C4CCC(=O)NC4=O)coc3c2)cc(Cl)c1C (stereo not shown) [WX005]
- Max. IR (maximum inhibition rate) [2]: 80.7%
